Experimental data taken from PubChem BioAssay AID330 (DTP/NCI, 2004).
Several values for one entry are separate records, joined by “and”; a condition that tells them apart may be missing. Equal values may be shown once. Inconclusive results and toxic doses are left out.

Test system: P388 leukemia ip, CD2F1 mice, survival T/C
Test: NCI In Vivo Anticancer Drug Screen. Data for tumor model P388 Leukemia (intraperitoneal) in CD2F1 (CDF1) mice
Conditions: endpoint: median survival time, higher = longer survival
Procedure, shortened: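 Mice carrying the transplanted tumor received test compound or vehicle. Survival was recorded in each group, and the value is the treated-group measurement divided by that of the vehicle-treated control group.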

[1] = dose: 100.0 mg/kg/injection, schedule: Q04DX003 (ip), vehicle: Klucel (hydroxypropylcellulose) (HPC)
[2] = dose: 200.0 mg/kg/injection, schedule: Q04DX003 (ip), vehicle: Klucel (hydroxypropylcellulose) (HPC)
[3] = dose: 400.0 mg/kg/injection, schedule: Q04DX003 (ip), vehicle: Klucel (hydroxypropylcellulose) (HPC)
[4] = dose: 25.0 mg/kg/injection, schedule: Q01DX009 (ip), vehicle: Klucel (hydroxypropylcellulose) (HPC)
[5] = dose: 50.0 mg/kg/injection, schedule: Q01DX009 (ip), vehicle: Klucel (hydroxypropylcellulose) (HPC)
[6] = dose: 100.0 mg/kg/injection, schedule: Q01DX009 (ip), vehicle: Klucel (hydroxypropylcellulose) (HPC)
[7] = dose: 200.0 mg/kg/injection, schedule: Q01DX009 (ip), vehicle: Klucel (hydroxypropylcellulose) (HPC)

In the case of `O=c1c(Cc2ccccc2)c([O-])[n+](Cc2ccccc2)c(-c2ccccc2)n1-c1ccccc1`, the T/C (dose: 60.0 mg/kg/injection, schedule: Q01DX005 (ip), vehicle: Klucel (hydroxypropylcellulose) (HPC)) was 98 % of control, the T/C (dose: 120.0 mg/kg/injection, schedule: Q01DX005 (ip), vehicle: Klucel (hydroxypropylcellulose) (HPC)) was 91 % of control and the T/C (dose: 240.0 mg/kg/injection, schedule: Q01DX005 (ip), vehicle: Klucel (hydroxypropylcellulose) (HPC)) was 90 % of control.

`COc1cccc2c1C(=O)c1c(O)c3c(c(O)c1C2=O)C[C@@](O)(/C(C)=N/NC(=O)c1cccc([N+](=O)[O-])c1)C[C@@H]3OC1CC(N)C(O)C(C)O1` (stereo not given in full) was tested, and the T/C (dose: 0.5 mg/kg/injection, schedule: Q01DX009 (ip), vehicle: water) was 152 % of control, the T/C (dose: 1.0 mg/kg/injection, schedule: Q01DX009 (ip), vehicle: water) was 155 % of control and the T/C (dose: 1.0 mg/kg/injection, schedule: Q04DX003 (ip), vehicle: saline) was 100 % of control and 112 % of control. For the same compound, the T/C (dose: 1.56 mg/kg/injection, schedule: Q04DX003 (ip), vehicle: water) was 106 % of control, the T/C (dose: 2.0 mg/kg/injection, schedule: Q01DX009 (ip), vehicle: water) was 172 % of control and 179 % of control and the T/C (dose: 2.0 mg/kg/injection, schedule: Q04DX003 (ip), vehicle: saline) was 100 % of control and 115 % of control. For the same compound, the T/C (dose: 3.13 mg/kg/injection, schedule: Q04DX003 (ip), vehicle: water) was 112 % of control and 117 % of control, the T/C (dose: 4.0 mg/kg/injection, schedule: Q01DX009 (ip), vehicle: water) was 190 % of control and 200 % of control and the T/C (dose: 4.0 mg/kg/injection, schedule: Q04DX003 (ip), vehicle: saline) was 113 % of control and 122 % of control. The T/C (dose: 5.0 mg/kg/injection, schedule: Q01DX001 (ip), vehicle: water) was 167 % of control, the T/C (dose: 6.25 mg/kg/injection, schedule: Q04DX003 (ip), vehicle: water) was 114 % of control and 122 % of control and the T/C (dose: 8.0 mg/kg/injection, schedule: Q01DX009 (ip), vehicle: water) was 123 % of control and 202 % of control. The T/C (dose: 8.0 mg/kg/injection, schedule: Q04DX003 (ip), vehicle: saline) was 112 % of control and 115 % of control and 95 % of control, the T/C (dose: 10.0 mg/kg/injection, schedule: Q01DX001 (ip), vehicle: water) was 186 % of control and the T/C (dose: 16.0 mg/kg/injection, schedule: Q04DX003 (ip), vehicle: saline) was 110 % of control and 115 % of control and 123 % of control. The T/C (dose: 25.0 mg/kg/injection, schedule: Q04DX003 (ip), vehicle: water) was 168 % of control, the T/C (dose: 32.0 mg/kg/injection, schedule: Q04DX003 (ip), vehicle: saline) was 118 % of control and the T/C (dose: 64.0 mg/kg/injection, schedule: Q04DX003 (ip), vehicle: saline) was 174 % of control. The T/C (dose: 100.0 mg/kg/injection, schedule: Q04DX003 (ip), vehicle: water) was 114 % of control, the T/C (dose: 512.0 mg/kg/injection, schedule: Q04DX003 (ip), vehicle: saline) was 92 % of control and the T/C (dose: 1024.0 mg/kg/injection, schedule: Q04DX003 (ip), vehicle: saline) was 93 % of control. For the same compound, the T/C (dose: 2048.0 mg/kg/injection, schedule: Q04DX003 (ip), vehicle: saline) was 90 % of control.

`Cc1c[nH]c(=O)cn1` was tested, and the T/C [1] was 95 % of control, the T/C [2] was 90 % of control and the T/C [3] was 95 % of control.

For `N#CNC(=O)c1cccnc1`, the T/C (dose: 50.0 mg/kg/injection, schedule: Q01DX009 (ip), vehicle: saline) was 99 % of control, the T/C (dose: 100.0 mg/kg/injection, schedule: Q01DX009 (ip), vehicle: saline) was 94 % of control and the T/C (dose: 200.0 mg/kg/injection, schedule: Q01DX009 (ip), vehicle: saline) was 99 % of control.

`Nc1nc(Cl)c2[nH]cnc2n1` was tested, and the T/C (dose: 50.0 mg/kg/injection, schedule: Q01DX009 (ip), vehicle: saline with Tween-80) was 108 % of control, the T/C (dose: 50.0 mg/kg/injection, schedule: Q04DX003 (ip), vehicle: saline with Tween-80) was 95 % of control and the T/C (dose: 100.0 mg/kg/injection, schedule: Q01DX009 (ip), vehicle: saline with Tween-80) was 99 % of control. The T/C (dose: 100.0 mg/kg/injection, schedule: Q04DX003 (ip), vehicle: saline with Tween-80) was 100 % of control and the T/C (dose: 200.0 mg/kg/injection, schedule: Q04DX003 (ip), vehicle: saline with Tween-80) was 100 % of control.

`COc1cc2c(c(OC)c1OC)-c1oncc1CC2` was tested, and the T/C [1] was 90 % of control, the T/C [2] was 92 % of control and the T/C [3] was 87 % of control.

With `O=C1CS/C(=N/C(=O)Nc2ccc(Cl)cc2)N1` the T/C (dose: 25.0 mg/kg/injection, schedule: Q04DX002 (ip), vehicle: Klucel (hydroxypropylcellulose) (HPC)) was 90 % of control, the T/C (dose: 50.0 mg/kg/injection, schedule: Q04DX002 (ip), vehicle: Klucel (hydroxypropylcellulose) (HPC)) was 88 % of control and the T/C (dose: 100.0 mg/kg/injection, schedule: Q04DX002 (ip), vehicle: Klucel (hydroxypropylcellulose) (HPC)) was 91 % of control. The T/C (dose: 200.0 mg/kg/injection, schedule: Q04DX002 (ip), vehicle: Klucel (hydroxypropylcellulose) (HPC)) was 95 % of control and the T/C (dose: 400.0 mg/kg/injection, schedule: Q04DX002 (ip), vehicle: Klucel (hydroxypropylcellulose) (HPC)) was 87 % of control.

`COc1nc(Cl)nc(OC)n1` was tested, and the T/C (dose: 200.0 mg/kg/injection, schedule: Q01DX009 (ip), vehicle: saline with Tween-80) was 86 % of control.

For `CCOP(=O)(O)C1CCCC(C)[N-]1.CCOP(=O)(O)C1CCCC(C)[N-]1.[Mn+2]` (stereo not given), the T/C [1] was 100 % of control and the T/C [2] was 111 % of control.

`CC1(C)CC23C4COC(=O)C2CCC1C3CC4=O` (stereo not given) was tested, and the T/C (dose: 1.5 mg/kg/injection, schedule: Q01DX009 (ip), vehicle: DMSO) was 94 % of control, the T/C (dose: 3.0 mg/kg/injection, schedule: Q01DX009 (ip), vehicle: DMSO) was 107 % of control and 94 % of control and the T/C (dose: 6.0 mg/kg/injection, schedule: Q01DX009 (ip), vehicle: DMSO) was 104 % of control and 91 % of control. The T/C (dose: 12.0 mg/kg/injection, schedule: Q01DX009 (ip), vehicle: DMSO) was 88 % of control and 95 % of control, the T/C (dose: 24.0 mg/kg/injection, schedule: Q01DX009 (ip), vehicle: DMSO) was 90 % of control and the T/C (dose: 48.0 mg/kg/injection, schedule: Q01DX009 (ip), vehicle: DMSO) was 106 % of control and 91 % of control.

With `NC(CCC(=O)NC(CSCC(=O)Nc1ccc(O)cc1)C(=O)NCC(=O)O)C(=O)O` (stereo not given) the T/C (dose: 60.0 mg/kg/injection, schedule: Q01DX005 (ip), vehicle: saline) was 97 % of control, the T/C (dose: 120.0 mg/kg/injection, schedule: Q01DX005 (ip), vehicle: saline) was 97 % of control and the T/C (dose: 240.0 mg/kg/injection, schedule: Q01DX005 (ip), vehicle: saline) was 97 % of control.

For `CCCCCC(CSCC)C(=O)/C=C/c1ccc(Cl)c(Cl)c1` (stereo not given), the T/C (dose: 12.5 mg/kg/injection, schedule: Q01DX009 (ip), vehicle: distilled water + Tween-80) was 101 % of control, the T/C (dose: 25.0 mg/kg/injection, schedule: Q01DX009 (ip), vehicle: distilled water + Tween-80) was 105 % of control and the T/C (dose: 50.0 mg/kg/injection, schedule: Q01DX009 (ip), vehicle: distilled water + Tween-80) was 103 % of control and 104 % of control. The T/C (dose: 100.0 mg/kg/injection, schedule: Q01DX009 (ip), vehicle: distilled water + Tween-80) was 105 % of control and 109 % of control, the T/C (dose: 200.0 mg/kg/injection, schedule: Q01DX009 (ip), vehicle: distilled water + Tween-80) was 120 % of control and 124 % of control and the T/C (dose: 400.0 mg/kg/injection, schedule: Q01DX009 (ip), vehicle: distilled water + Tween-80) was 119 % of control.

With `c1ccc2c(c1)Cc1cc3ccccc3nc1-2` the T/C (dose: 25.0 mg/kg/injection, schedule: Q01DX005 (ip), vehicle: Klucel (hydroxypropylcellulose) (HPC)) was 94 % of control, the T/C [4] was 94 % of control and the T/C (dose: 50.0 mg/kg/injection, schedule: Q01DX005 (ip), vehicle: Klucel (hydroxypropylcellulose) (HPC)) was 100 % of control. For the same compound, the T/C [5] was 91 % of control, the T/C (dose: 100.0 mg/kg/injection, schedule: Q01DX005 (ip), vehicle: Klucel (hydroxypropylcellulose) (HPC)) was 100 % of control and the T/C [6] was 106 % of control. For the same compound, the T/C (dose: 200.0 mg/kg/injection, schedule: Q01DX005 (ip), vehicle: Klucel (hydroxypropylcellulose) (HPC)) was 97 % of control and the T/C [7] was 100 % of control.

For `CN1C(=O)C2C3C=CC(C2C1=O)C1C2C(=O)N(C)C(=O)C2C31` (stereo not given), the T/C [4] was 100 % of control, the T/C [5] was 108 % of control and the T/C [6] was 111 % of control. For the same compound, the T/C [7] was 104 % of control and 111 % of control.

For `CC(C)(C)NCC(O)c1ccc(O)c(CO)n1` (stereo not given), the T/C (dose: 50.0 mg/kg/injection, schedule: Q01DX005 (ip), vehicle: saline) was 95 % of control, the T/C (dose: 100.0 mg/kg/injection, schedule: Q01DX005 (ip), vehicle: saline) was 102 % of control and the T/C (dose: 200.0 mg/kg/injection, schedule: Q01DX005 (ip), vehicle: saline) was 95 % of control.

In the case of `CN(C)C1=C(c2ccccc2)C(=O)C(c2ccccc2)=C1c1ccccc1`, the T/C [1] was 106 % of control, the T/C [2] was 109 % of control and the T/C [3] was 109 % of control.
